Experimental findings from patent publication US8614201B2 (Janssen Pharmaceutica NV, priority 2009, dated 2013) are described below.

For orientation: IC50 means the concentration needed to halve the response being measured.

Molecules are shown by their SMILES.

Chain of Human TRPA1 (O75762 whole entry): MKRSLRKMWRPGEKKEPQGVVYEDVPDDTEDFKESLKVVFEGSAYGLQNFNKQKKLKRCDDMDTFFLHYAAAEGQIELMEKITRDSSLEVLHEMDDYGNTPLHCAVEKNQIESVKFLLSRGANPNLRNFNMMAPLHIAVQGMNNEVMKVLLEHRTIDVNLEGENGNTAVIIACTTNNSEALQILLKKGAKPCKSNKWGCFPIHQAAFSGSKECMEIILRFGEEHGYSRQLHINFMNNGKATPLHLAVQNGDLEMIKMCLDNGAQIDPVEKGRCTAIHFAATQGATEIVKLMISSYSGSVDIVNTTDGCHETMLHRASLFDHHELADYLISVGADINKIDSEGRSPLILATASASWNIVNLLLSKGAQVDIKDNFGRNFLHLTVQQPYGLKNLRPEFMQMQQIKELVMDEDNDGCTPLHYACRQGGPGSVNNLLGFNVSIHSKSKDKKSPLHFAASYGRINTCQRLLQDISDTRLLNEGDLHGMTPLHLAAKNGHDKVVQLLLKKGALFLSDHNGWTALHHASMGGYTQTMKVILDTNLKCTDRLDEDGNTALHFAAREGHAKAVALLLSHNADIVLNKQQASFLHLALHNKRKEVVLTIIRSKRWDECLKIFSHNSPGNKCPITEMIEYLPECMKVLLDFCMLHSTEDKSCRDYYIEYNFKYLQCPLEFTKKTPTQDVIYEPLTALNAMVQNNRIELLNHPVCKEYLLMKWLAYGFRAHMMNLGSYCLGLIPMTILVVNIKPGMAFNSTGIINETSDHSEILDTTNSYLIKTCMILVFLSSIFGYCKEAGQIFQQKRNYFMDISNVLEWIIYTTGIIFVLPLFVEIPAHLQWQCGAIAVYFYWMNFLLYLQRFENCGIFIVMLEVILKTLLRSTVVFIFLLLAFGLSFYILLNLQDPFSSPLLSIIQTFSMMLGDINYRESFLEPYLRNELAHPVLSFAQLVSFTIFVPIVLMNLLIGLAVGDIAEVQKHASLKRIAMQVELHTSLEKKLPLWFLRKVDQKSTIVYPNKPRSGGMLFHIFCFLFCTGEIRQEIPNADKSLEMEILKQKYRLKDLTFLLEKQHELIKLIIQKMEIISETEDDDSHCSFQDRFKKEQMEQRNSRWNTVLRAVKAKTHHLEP

The assay addresses Human TRPA1 (Homo sapiens, UniProt O75762). As to the kind of experiment: Assay 1: In vitro cellular testing of TRPA1 modulation (CHO-TREx, Fluo-3 calcium fluorescence, AITC agonist). It is filed as cell-based. More on the design: expressed in transfected cells; host or cells: CHO-TREx cells (Invitrogen), vector pcDNA4/TO. The note with it: CHO-TREx cells expressing human TRPA1; Fluo-3 fluorescence (FLIPR/Tetra); agonist 15 μM allyl isothiocyanate (AITC); 30 minute antagonist incubation. In a few lines:
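Tetracycline-induced CHO-TREx cells stably expressing human TRPA1, loaded with 4 μM Fluo-3 AM, preincubated 30 min with compound (serial dilution typically from 10 μM, three-fold steps) in HEPES saline pH 7.4. Fluorescence change over 3 min after 15 μM AITC; IC50 from Hill fit versus no-antagonist and 10 μM ruthenium red controls.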
Take `O=C(NCc1cc(-c2ccc(C(F)(F)F)cc2)nc(N2CCN(Cc3ccccc3)CC2)c1)[C@@H]1CC(F)(F)CN1S(=O)(=O)c1ccc(F)cc1` [Example 388, N-({2-(4-Benzylpiperazin-1-yl)-6-[4-(trifluoromethyl)phenyl]pyridin-4-yl}methyl)-4,4-difluoro-1-[(4-fluorophenyl)sulfonyl]-L-prolinamide]: the concentration for half-maximal inhibition (IC50) was 3520 nM.
As to `CC(C)CN1CCN(c2cc(CNC(=O)[C@@H]3C=CCN3S(=O)(=O)c3ccc(Cl)s3)cc(-c3ccc(C(F)(F)F)cc3)n2)CC1` [Example 389, (2S)-1-[(5-Chlorothiophen-2-yl)sulfonyl]-N-({2-[4-(2-methylpropyl)piperazin-1-yl]-6-[4-(trifluoromethyl)phenyl]pyridin-4-yl}methyl)-2,5-dihydro-1H-pyrrole-2-carboxamide], the IC50 stood at 95 nM.
In the case of `CC(C)CN1CCN(c2cc(CNC(=O)[C@@H]3C=CCN3S(=O)(=O)c3ccc(F)cc3)cc(-c3ccc(C(F)(F)F)cc3)n2)CC1` [Example 390, (2S)-1-[(4-Fluorophenyl)sulfonyl]-N-({2-[4-(2-methylpropyl)piperazin-1-yl]-6-[4-(trifluoromethyl)phenyl]pyridin-4-yl}methyl)-2,5-dihydro-1H-pyrrole-2-carboxamide], the half-inhibitory concentration (IC50) came out at 382 nM.
Under `O=C(NCc1cc(NCc2ccncc2)nc(-c2ccc(C(F)(F)F)cc2)c1)[C@@H]1C=CCN1S(=O)(=O)c1ccc(Cl)s1` [Example 391, (2S)-1-[(5-Chlorothiophen-2-yl)sulfonyl]-N-({2-[(pyridin-4-ylmethyl)amino]-6-[4-(trifluoromethyl)phenyl]pyridin-4-yl}methyl)-2,5-dihydro-1H-pyrrole-2-carboxamide] stands 797 nM; under `O=C(NCc1cc(NCc2ccccn2)nc(-c2ccc(C(F)(F)F)cc2)c1)[C@@H]1CCCN1S(=O)(=O)c1ccc(F)cc1` [Example 392, 1-[(4-Fluorophenyl)sulfonyl]-N-({2-[(pyridin-2-ylmethyl)amino]-6-[4-(trifluoromethyl)phenyl]pyridin-4-yl}methyl)-L-prolinamide], 414 nM.
Under `CN(C)c1cc(CNC(=O)[C@@H]2CC(F)(F)CN2S(=O)(=O)c2ccc(F)cc2)cc(-c2ccc(C(F)(F)F)cc2)n1` [Example 393, N-({2-(Dimethylamino)-6-[4-(trifluoromethyl)phenyl]pyridin-4-yl}methyl)-4,4-difluoro-1-[(4-fluorophenyl)sulfonyl]-L-prolinamide] stands 461 nM; under `O=C(NCc1cc(NCc2ccccc2)nc(-c2ccc(C(F)(F)F)cc2)c1)[C@@H]1CC(F)(F)CN1S(=O)(=O)c1ccc(F)cc1` [Example 394, N-({2-(Benzylamino)-6-[4-(trifluoromethyl)phenyl]pyridin-4-yl}methyl)-4,4-difluoro-1-[(4-fluorophenyl)sulfonyl]-L-prolinamide], 598 nM; under `O=C(NCc1cc(NCc2cccnc2)nc(-c2ccc(C(F)(F)F)cc2)c1)[C@@H]1CCCN1S(=O)(=O)c1ccc(F)cc1` [Example 395, 1-[(4-Fluorophenyl)sulfonyl]-N-({2-[(pyridin-3-ylmethyl)amino]-6-[4-(trifluoromethyl)phenyl]pyridin-4-yl}methyl)-L-prolinamide], 2980 nM.
Under `CC1CCCN1c1cc(CNC(=O)[C@@H]2CC(F)(F)CN2S(=O)(=O)c2ccc(F)cc2)cc(-c2ccc(C(F)(F)F)cc2)n1` (stereo partly drawn) [Example 396, 4,4-Difluoro-1-[(4-fluorophenyl)sulfonyl]-N-({2-(2-methylpyrrolidin-1-yl)-6-[4-(trifluoromethyl)phenyl]pyridin-4-yl}methyl)-L-prolinamide] stands 1790 nM; under `CC1CCCN1c1cc(CNC(=O)[C@@H]2CC(F)(F)CN2S(=O)(=O)c2ccc(Cl)s2)cc(-c2ccc(C(F)(F)F)cc2)n1` (stereo partly drawn) [Example 397, 1-[(5-Chlorothiophen-2-yl)sulfonyl]-4,4-difluoro-N-({2-(2-methylpyrrolidin-1-yl)-6-[4-(trifluoromethyl)phenyl]pyridin-4-yl}methyl)-L-prolinamide], 2950 nM.
